Data: patent publication US9434711B2 (Janssen Pharmaceutica, NV, priority 2007, dated 2016)
Read-outs that look alike come from different tables or passages of the source. Blank lines part the entries; values can stand above or below the compound they belong to.

What was measured:
canine TRPM8 [1] = target: T1, canine TRPM8 (Canis lupus familiaris, UniProt Q1A7N1); assay: In Vitro Canine TRPM8 Functional Assay (Ca2+ fluorescence, icilin activation); assay type: cell-based; conditions: for inhibition at 0.2 µM / % Inh @ 0.2 (μM): compound at 0.2 μM; for inhibition at 0.2 µM: read-out: % Inh @ 0.2; for IC50: HEK293 cells stably expressing canine TRPM8, icilin activation, eight-point dose-response, read-out: IC50
Procedure, shortened: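 Readout is the intracellular Ca2+ fluorescence change, measured by FLIPR or FDSS, in HEK293 cells stably expressing canine TRPM8. Potency (EC50 or IC50) is fitted from eight concentrations averaged over quadruplicate wells.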

canine TRPM8 [2] = target: T1, canine TRPM8; assay: TRPM8 Patch Clamp Assays (whole-cell, menthol or cold activation); assay type: cell-based; conditions: cold stimulation
Description: For patch clamp experiments, HEK293 cells are stably transfected with canine TRPM8 and cultured in DMEM supplemented with 10% fetal bovine serum, 100 units/ml penicillin, 100 μg/ml streptomycin and 1 mg/ml G418. Cells are maintained at 37° C. and in 5% CO2.
The extracellular solution contains (in mM): NaCl, 132; EGTA, 1; KCl, 5.4; MgCl2, 0.8; HEPES, 10; glucose, 10; pH=7.4. Recordings are performed using the conventional whole-cell patch clamp technique, 1-2 days after plating cells onto glass coverslips at densities appropriate for single cell recording. Currents are amplified by a patch clamp amplifier and filtered at 2 kHz (Axopatch 200B, Molecular Devices, Union City, Calif.). Menthol (100 μM) is applied to the cell at 0.5 ml/min via a gravity-fed perfusion system. Recordings involving menthol activation are performed at 22° C.
In experiments where temperatures are varied, temperature ramps are generated by cooling the perfusate in an in-line cooler (Model SC-20, Warner Instruments, Hamden, Conn.) controlled by a temperature controller (Model CL-100, Warner Instruments). The temperature in the vicinity of the recorded cell is measured with a custom-made miniature thermo-microprobe connected to a monitoring thermometer (Model TH-8, Physitemp, Clifton, N.J.), and sampled using Digidata 1322A and pClamp 9.0 (Molecular Devices), as are the currents concurrently measured in the whole-cell patch clamp mode. The current is continuously sampled (at 100 Hz) at a holding potential of −60 mV.
Compounds of the formula (I) are diluted from 10 mM DMSO stocks (stored at −20° C.) into an extracellular solution either containing 100 μM menthol or subjected to cooling. Increasing concentrations of a compound are applied to a cell in a cumulative manner and concentration-dependent responses are measured after steady-state activation is achieved by either 100 μM menthol or cooling to 10° C. A saturating concentration of a reference antagonist is applied at the end of an experiment (either in the presence of 100 μM menthol or 10° C. temperature) to establish the baseline from which all the other measurements are subtracted.
Percentage inhibition by a compound is calculated as follows:
100×(1−Icomp/I0); where Icomp and I0 are steady-state current amplitudes in either the presence or absence of a concentration of compounds of the formula (I).

Male Sprague Dawley rats [3] = assay: Inhibition of Icilin-Induced "Wet-Dog" Shakes in Rats; assay type: in vivo, rat; conditions: Na salt form; for ED50: Rattus norvegicus, po
Description: Male Sprague Dawley rats (220-450 g, Charles River Labs, n=6-9/treatment) were used to evaluate the ability of selected compounds of the formula (I) to block icilin-induced “wet-dog” shakes (WDS). Compounds of the formula (I) were administered in an appropriate vehicle, such as hydroxypropyl-β-cyclodextrin (HPβCD), methocellulose, 10% Solutol, or H2O, or the like, by the appropriate route, i.p. or p.o., 30-120 minutes before icilin. Icilin was administered in PEG-400 or 10% solutol/H2O, at 1.0 or 3.0 mg/kg, i.p. and spontaneous “wet-dog” shakes were counted 10-20 minutes post-icilin. Results are presented as a percent inhibition of shakes, which was calculated as [1-(test compound WDS count/vehicle WDS count)]×100.

Male Sprague Dawley rats [4] = assay: Chronic Constriction Injury (CCI)-Induced Model of Neuropathic Pain, Acetone-Induced Hypersensitivity; assay type: in vivo, rat; conditions: Rattus norvegicus, po, Na salt form; for inhibition in vivo at 30 mg/kg: 30 mg/kg p.o.; for inhibition in vivo at 10 mg/kg: 10 mg/kg p.o.
Source text: Male Sprague Dawley rats (225-450 g; n=5-8/treatment) were used to evaluate the ability of selected compounds of the formula (I) to reverse CCI-induced cold hypersensitivity. Four loose ligatures of 4-0 chromic gut were surgically placed around the left sciatic nerve under inhalation anesthesia as described by Bennett et al (Bennett G J, Xie Y K. Pain 1988, 33(1): 87-107). Fourteen to 35 days following CCI surgery, subjects were placed in elevated observation chambers containing wire mesh floors and five applications of acetone (0.05 mL/application separated by approximately 5 minutes) were spritzed onto the plantar surface of the paw using a multidose syringe. An abrupt withdrawal or lifting of the paw was considered a positive response. The number of positive responses was recorded for each rat over the five trials. Following baseline withdrawal determinations, compounds of formula (I) are administered in an appropriate vehicle, such as hydroxypropyl-β-cyclodextrin (HP β CD), methylcellulose, Methocel, 10% Solutol, or H2O, or the like, by the appropriate route, i.p. or p.o. […] Results are presented as a percent inhibition of […], which was calculated for each subject as [1−(test compound withdrawals/pre-test withdrawals)]×100 and then averaged by treatment.

[5] = canine TRPM8, icilin activation
[6] = dose 30 p.o., HPbCD, 30 min pre-icilin
[7] = dose 30 p.o., HPbCD, 60 min pre-icilin
[8] = dose 10 p.o., HPbCD, 60 min pre-icilin
[9] = 2 h, Water, pretreatment 2 hr, read-out: Percent Inhibition
[10] = 3 h, Water, pretreatment 3 hr, read-out: Percent Inhibition
[11] = 4 h, Water, pretreatment 4 hr, read-out: Percent Inhibition
[12] = 3 h, HPbCD, pretreatment 3 hr, read-out: Percent Inhibition

T1 sequence (Q1A7N1 1-1104): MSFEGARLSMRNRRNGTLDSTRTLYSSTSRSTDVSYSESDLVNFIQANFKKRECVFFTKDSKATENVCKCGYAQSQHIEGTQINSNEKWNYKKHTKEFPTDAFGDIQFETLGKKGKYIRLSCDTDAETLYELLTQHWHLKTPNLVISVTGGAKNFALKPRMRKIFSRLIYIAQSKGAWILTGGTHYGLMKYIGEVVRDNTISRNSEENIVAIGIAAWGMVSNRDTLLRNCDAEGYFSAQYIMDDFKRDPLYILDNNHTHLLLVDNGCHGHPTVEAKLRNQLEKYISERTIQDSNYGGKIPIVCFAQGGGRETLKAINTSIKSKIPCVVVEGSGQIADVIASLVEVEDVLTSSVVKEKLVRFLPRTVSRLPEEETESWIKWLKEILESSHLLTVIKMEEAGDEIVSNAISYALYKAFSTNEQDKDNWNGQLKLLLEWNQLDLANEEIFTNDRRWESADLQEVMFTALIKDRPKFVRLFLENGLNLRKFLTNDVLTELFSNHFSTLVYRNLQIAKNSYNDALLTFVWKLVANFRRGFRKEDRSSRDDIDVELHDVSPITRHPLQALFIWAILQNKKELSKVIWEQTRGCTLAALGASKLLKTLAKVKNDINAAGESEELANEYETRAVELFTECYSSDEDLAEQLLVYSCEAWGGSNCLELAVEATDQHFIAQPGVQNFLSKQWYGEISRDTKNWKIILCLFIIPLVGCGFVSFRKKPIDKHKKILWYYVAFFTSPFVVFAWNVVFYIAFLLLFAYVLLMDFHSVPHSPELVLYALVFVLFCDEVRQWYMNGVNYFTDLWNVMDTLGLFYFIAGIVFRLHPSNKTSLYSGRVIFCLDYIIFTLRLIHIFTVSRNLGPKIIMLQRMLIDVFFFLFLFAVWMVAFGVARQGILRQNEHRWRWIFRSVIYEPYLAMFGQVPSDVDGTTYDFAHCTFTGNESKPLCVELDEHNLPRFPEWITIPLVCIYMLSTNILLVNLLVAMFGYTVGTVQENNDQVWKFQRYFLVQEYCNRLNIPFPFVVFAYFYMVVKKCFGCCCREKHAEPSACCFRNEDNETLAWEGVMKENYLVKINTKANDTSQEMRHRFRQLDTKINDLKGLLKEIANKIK

SMILES: CCS(=O)(=O)N(CCN1CCOCC1)c1sc2ccccc2c1C(C)O (stereo not drawn) [Compound 284, N-(3-(1-Hydroxyethyl)benzo[b]thiophen-2-yl)-N-(2-morpholinoethyl)-ethanesulfonamide]
inhibition at 0.2 µM (canine TRPM8 [1]; [5]): 15%
IC50 (canine TRPM8 [2]): 8 nM
inhibition at 0.003 µM (canine TRPM8 [2]; 0.003 μM): 24%
inhibition at 0.01 µM (canine TRPM8 [2]; 0.01 μM): 71%

SMILES: O=S(=O)(c1ccc(-c2nnn[nH]2)cc1)N(CCCC(F)(F)F)c1sc2ccccc2c1Br [Compound 429]
IC50 (canine TRPM8 [1]): 17 nM
% Inh @ 0.2 (μM) (canine TRPM8 [1]; [5]): 93%
% Inhibition (Male Sprague Dawley rats [3]; [6]): 41%
% Inhibition (Male Sprague Dawley rats [3]; [7]): 36%

SMILES: CC(C)(O)c1c(N(CCCCC(F)(F)F)S(=O)(=O)c2ccc(C(=O)[O-])cc2)sc2ccccc12.[Na+] [Compound 658, Sodium, N-(3-(1-Hydroxy-1-methyl-ethyl)-benzo[b]thiophen-2-yl)-N-(5,5,5-trifluoro-pentyl)-4-carboxy-benzenesulfonamide]
IC50 (canine TRPM8 [1]): 4.3 nM
% Inh @ 0.2 (μM) (canine TRPM8 [1]; [5]): 101%
% Inhibition (Male Sprague Dawley rats [3]; [8]): 63%

SMILES: O=C(O)c1ccc(S(=O)(=O)N(CCC2CC2)c2sc3ccccc3c2Cl)cc1 [Compound 479]
IC50 (canine TRPM8 [1]): 8 nM
% Inh @ 0.2 (μM) (canine TRPM8 [1]; [5]): 100%
% Inhibition (Male Sprague Dawley rats [3]; [7]): 77%

SMILES: CCCCN(c1sc2ccccc2c1Br)S(=O)(=O)c1ccc(C(=O)O)cc1 [Compound 272, N-(3-Bromo-benzo[b]thiophen-2-yl)-N-(butyl)-4-carboxy-benzenesulfonamide]
IC50 (canine TRPM8 [1]): 6.2 nM
inhibition at 0.2 µM (canine TRPM8 [1]; [5]): 97%
ED50 (Male Sprague Dawley rats [3]; 0.5 h, HPbCD, 30 min pre-icilin): 22 mg/kg
inhibition in vivo at 30 mg/kg (Male Sprague Dawley rats [4]; 1 h, HPbCD, pretreatment 1 hr, read-out: Percent Inhibition): 31%

SMILES: Cc1c(N(CCC(F)(F)F)S(=O)(=O)c2ccc(C(=O)[O-])cc2)sc2ccccc12.[Na+] [Compound 409, Sodium, N-(3-Methylbenzo[b]thiophen-2-yl)-N-(3,3,3-trifluoro-propyl)-4-carboxy-benzenesulfonamide]
IC50 (canine TRPM8 [1]): 10 nM
% Inh @ 0.2 (μM) (canine TRPM8 [1]; [5]): 101%
% Inhibition (Male Sprague Dawley rats [3]; [6]): 16%

SMILES: CCCCN(c1sc2ccccc2c1C)S(=O)(=O)c1ccc(C(=O)[O-])cc1.[Na+] [Compound 398, Sodium, N-(Butyl)-N-(3-methylbenzo[b]thiophen-2-yl)-4-carboxy-benzenesulfonamide]
IC50 (canine TRPM8 [1]): 6 nM
% Inh @ 0.2 (μM) (canine TRPM8 [1]; [5]): 101%
% Inhibition (Male Sprague Dawley rats [3]; [6]): 7%

SMILES: CC(C)(O)c1c(N(CCC2CC2)S(=O)(=O)c2ccc(C(=O)[O-])cc2)sc2ccccc12.[Na+] [Compound 657, Sodium, N-(2-Cyclopropyl-ethyl)-N-(3-(1-hydroxy-1-methyl-ethyl)-benzo[b]thiophen-2-yl)-4-carboxy-benzenesulfonamide]
IC50 (canine TRPM8 [1]): 7.5 nM
% Inh @ 0.2 (μM) (canine TRPM8 [1]; [5]): 101%
% Inhibition (Male Sprague Dawley rats [3]; [8]): 32%

SMILES: O=C(O)c1ccc(S(=O)(=O)N(CCC2CC2)c2sc3ccccc3c2Br)cc1 [Compound 396, N-(3-Bromo-benzo[b]thiophen-2-yl)-N-(2-cyclopropylethyl)-4-carboxy-benzenesulfonamide]
IC50 (canine TRPM8 [1]): 5 nM
inhibition at 0.2 µM (canine TRPM8 [1]; [5]): 101%
inhibition in vivo at 30 mg/kg (Male Sprague Dawley rats [4]; [11]): 50%

Further lines, with some results ahead:

IC50 (canine TRPM8 [1]): 3 nM
inhibition at 0.2 µM (canine TRPM8 [1]; [5]): 101%
SMILES: O=C(O)c1ccc(S(=O)(=O)N(CCCCC(F)(F)F)c2sc3ccccc3c2Br)cc1 [Compound 395, N-(3-Bromo-benzo[b]thiophen-2-yl)-N-(5,5,5-trifluoro-pentyl)-4-carboxy-benzenesulfonamide]
ED50 (Male Sprague Dawley rats [3]; 1 h, Water, 60 min pre-icilin): 7.6 mg/kg
inhibition in vivo at 30 mg/kg (Male Sprague Dawley rats [4]; [9]): 23%

IC50 (canine TRPM8 [1]): 0.8 nM
inhibition at 0.2 µM (canine TRPM8 [1]; [5]): 98%
inhibition at 0.5 µM (canine TRPM8 [1]; compound at 0.5 μM, canine TRPM8, icilin activation, read-out: % Inh @ 0.5): 100%
SMILES: O=C(O)c1ccc(S(=O)(=O)N(Cc2ccc(F)c(C(F)(F)F)c2)c2sc3ccccc3c2Br)cc1 [Compound 292, N-(3-Bromo-benzo[b]thiophen-2-yl)-N-(4-fluoro-3-trifluoromethyl-benzyl)-4-carboxy-benzenesulfonamide]
inhibition in vivo at 30 mg/kg (Male Sprague Dawley rats [4]; [9]): 60%
inhibition in vivo at 3 mg/kg (Male Sprague Dawley rats [4]; 3 h, 3 mg/kg p.o., Water, pretreatment 3 hr, read-out: Percent Inhibition): 7%
inhibition in vivo at 10 mg/kg (Male Sprague Dawley rats [4]; [10]): 16%
inhibition in vivo at 30 mg/kg (Male Sprague Dawley rats [4]; [10]): 21%
inhibition in vivo at 100 mg/kg (Male Sprague Dawley rats [4]; 3 h, 100 mg/kg p.o., Water, pretreatment 3 hr, read-out: Percent Inhibition): 67%
ED50 (Male Sprague Dawley rats [4]; Water, pretreatment 3 hr): 70 mg/kg

IC50 (canine TRPM8 [1]): 0.6 nM
inhibition at 0.2 µM (canine TRPM8 [1]; [5]): 101%
SMILES: Cc1c(N(Cc2ccc(F)c(Cl)c2)S(=O)(=O)c2ccc(C(=O)O)cc2)sc2ccccc12 [Compound 489, N-(3-Methyl-benzo[b]thiophen-2-yl)-N-(4-fluoro-3-chloro-benzyl)-4-carboxy-benzenesulfonamide]
inhibition in vivo at 30 mg/kg (Male Sprague Dawley rats [4]; [10]): 86%
inhibition in vivo at 10 mg/kg (Male Sprague Dawley rats [4]; [11]): 13%
inhibition in vivo at 17.8 mg/kg (Male Sprague Dawley rats [4]; 4 h, 17.8 mg/kg p.o., Water, pretreatment 4 hr, read-out: Percent Inhibition): 60%
inhibition in vivo at 30 mg/kg (Male Sprague Dawley rats [4]; [11]): 57%
inhibition in vivo at 56 mg/kg (Male Sprague Dawley rats [4]; 4 h, 56 mg/kg p.o., Water, pretreatment 4 hr, read-out: Percent Inhibition): 70%
ED50 (Male Sprague Dawley rats [4]; Water, pretreatment 4 hr): 23 mg/kg

inhibition at 0.2 µM (canine TRPM8 [1]; [5]): 102%
SMILES: Cc1c(N(Cc2ccc3c(c2)OC(F)(F)O3)S(=O)(=O)c2ccc(C(=O)O)cc2)sc2ccccc12 [Compound 524, N-(3-Methyl-benzo[b]thiophen-2-yl)-N—(C-(2,2-difluoro-benzo[1,3]dioxol-5-yl)-methyl)-4-carboxy-benzenesulfonamide]
inhibition in vivo at 30 mg/kg (Male Sprague Dawley rats [4]; [12]): 46%

IC50 (canine TRPM8 [1]): 2 nM
inhibition at 0.2 µM (canine TRPM8 [1]; [5]): 101%
SMILES: Cc1c(N(Cc2ccc(F)cc2)S(=O)(=O)c2ccc(C(=O)O)cc2)sc2ccccc12 [Compound 487, N-(3-Methyl-benzo[b]thiophen-2-yl)-N-(4-fluoro-benzyl)-4-carboxy-benzenesulfonamide]
inhibition in vivo at 10 mg/kg (Male Sprague Dawley rats [4]; [12]): 43%
inhibition in vivo at 30 mg/kg (Male Sprague Dawley rats [4]; [12]): 66%
